Structures are written as SMILES. Counter-ions that a name gives are not always drawn.

The test has as its system E. faecalis; ATCC #10741. The test is described as follows: Direct Inoculation Filter Assay (residual efficacy on filter paper). Type of test: cell-based, Enterococcus faecalis. The note with it: 2.0% ester with 4.0% cetyl alcohol and CHG in dried waxy coatings (Table 3). Here is the method:
Direct Innoculation Filter Assay
This is an in vitro assay using filter paper to compare the residual efficacy of different surgical skin prep formulations.
Phosphate Buffered Water solution (PBW) was made by making a 0.25M stock solution by putting 34 grams KH2PO4 into 500 mL of DI water, adjusting the pH to 7.2 with 10N NaOH, and adding enough DI water to make 1 liter. The solution was filtered, sterilized, dispensed into a 1 liter sterile bottle, and stored under refrigeration. Butterfield's PBW was made by adding 1.25 mL of the stock solution to 900 mL of DI water and adding neutralizers, stirring, heating to dissolve the components, and diluting to 1 liter with DI water. The solution was mixed well, dispensed into two 500-mL bottles. The bottles containing the solution were autoclaved for 25 minutes at 121 degree C. The contents were carefully swirled after removing the bottles from the autoclave.
A Standard Sampling Solution (SSS) was prepared which contained: 0.4 grams KH2PO4, 10.1 grams Na2HPO4, 1.0 gram TRITON X-100 surfactant, 3.0 grams lecithin, 30.0 grams TWEEN 80, and deionized water to bring the total volume to 1 liter. […]
Onto each filter disc was pipetted 25 μL of each Example preparation or control. […] After 48 hours, colonies were counted and recorded.
The CFU/mL was determined by multiplying CFU count by dilution rate. The CFU/sample was calculated by multiplying the CFU/mL by 20, the amount of the SSS dilution. The log10 of the CFU/sample was calculated. […]

Take `CC(C)OC(=O)CCCCC(=O)OC(C)C` [diisopropyl adipate, Diisopropyl adipate]: the “Effect of emollient ester on bactericidal activity of the CHG” value was “significantly enhanced the bactericidal activity of the CHG”. For the compound `CCCCCCCCCCCCCCCC(=O)OC(C)C` [isopropyl palmitate, Isopropyl palmitate], the “Effect of emollient ester on bactericidal activity of the CHG” value is on record as “did not enhance the activity of the CHG”. Then `CCCCOC(=O)CC(O)(CC(=O)OCCCC)C(=O)OCCCC` [tributyl citrate, Tributyl citrate], with “significantly enhanced the bactericidal activity of the CHG”.

The values above are taken from patent publication US8569384B2, “Antimicrobial compositions” (3M Innovative Properties Company, priority 2006, dated 2013).
